Data published in US10093646B2, “1-pyridazin-/triazin-3-yl-piper(-azine)/idine/pyrolidine derivatives and compositions thereof for inhibiting the activity of SHP2” (Novartis AG, priority 2014, dated 2018).

Target: SHP2 (Homo sapiens (Human), UniProt Q06124)
Test: SHP2 Allosteric Inhibition Assay (DiFMUP prompt fluorescence)
Format: biochemical
Settings: 0.5 nM SHP2 activated with 0.5 μM peptide IRS1_pY1172(dPEG8)pY1222, substrate DiFMUP
Source text: SHP2 Allosteric Inhibition Assay
SHP2 is allosterically activated through binding of bis-tyrosyl-phosphorylated peptides to its Src Homology 2 (SH2) domains.

| IC50 [nM] | SMILES |
| --- | --- |
| 908 | Nc1nc(N2CCC3NCCC3C2)cnc1-c1cccc(Cl)c1Cl (stereo not shown) [Example 10] |
| 65 | NCC1(c2ccccc2)CCN(c2cnc(-c3cccc(Cl)c3Cl)c(N)n2)CC1 [Example 12] |
| 65 | Nc1nc(N2CC3C(N)C3C2)cnc1-c1cccc(Cl)c1Cl (stereo not shown) [Example 13] |
| 75 | CCCC1(CN)CCN(c2cnc(-c3cccc(Cl)c3Cl)c(N)n2)CC1 [Example 15] |
| 93 | C[C@]1(N)CCN(c2cnc(-c3cccc(Cl)c3Cl)c(N)n2)C[C@@H]1O [Example 16] |
| 102 | NCC1(c2ccncc2)CCN(c2cnc(-c3cccc(Cl)c3Cl)c(N)n2)CC1 [Example 17] |
| 93 | NCC1(c2cnccn2)CCN(c2cnc(-c3cccc(Cl)c3Cl)c(N)n2)CC1 [Example 18] |
| 110 | NCC1(c2ccccn2)CCN(c2cnc(-c3cccc(Cl)c3Cl)c(N)n2)CC1 [Example 19] |
| 404 | Nc1nc(N2CC3CNCC32)cnc1-c1cccc(Cl)c1Cl (stereo not shown) [Example 20] |
| 102 | Nc1nc(N2CC3CNCC3C2)cnc1-c1cccc(Cl)c1Cl (stereo not shown) [Example 21] |
